Laboratory results taken from patent EP0641797A1, “Cephem derivatives and antimicrobial agents containing the same” (KATAYAMA SEIYAKUSYO CO. Ltd., priority 1993, dated 1995).
In brackets after ≈: the same amount, converted by molar mass.

Columns and labels:
Experiment in all cases: MIC on standard strains, standard method of Japan Society of Chemotherapy
Format in all cases: cell-based
A. calcoaceticos T59 = details: read-out: MIC
Experimental: (§1) Antimicrobial activity of the compounds of the present invention were measured using CTM (cefotiam) and FMOX (flomoxef) as control drugs in accordance with the standard method of Japan Society of Chemotherapy. Of the 25 standard strains used in this test, Staphylococcus aureus 167 and Staphylococcus aureus 195 belong to MRSA.
(§2) In these tables, drugs tested are shown by the corresponding examples in which they were synthesized.

A. faecalis ATCC 3750 = details: Alcaligenes faecalis, ATCC3750, A. faecalis ATCC 3750; read-out: MIC
Experimental: as §1, §2

B. subtilis ATCC 6633 = details: Bacillus subtilis, ATCC6633, B. subtilis ATCC 6633; read-out: MIC
Experimental: as §1, §2

C. freundii ATCC 8090 = details: Citrobacter freundii, ATCC8090, C. freundii ATCC 8090; read-out: MIC
Experimental: as §1, §2

E. cloacae ATCC 13407 = details: Enterobacter cloacae, ATCC13407, E. cloacae ATCC 13407; read-out: MIC
Experimental: as §1, §2

E. cloacae Nek39 = details: Enterobacter cloacae, NEK39, E. cloacae Nek39; read-out: MIC
Experimental: as §1, §2

E. coli CSH2(RE45) = details: Escherichia coli
Experimental: as §1, §2

E. coli CSH2(RK1) = details: Escherichia coli
Experimental: as §1, §2

E. coli NHIJ JC-2 = details: Escherichia coli, NHIJJC2
Experimental: as §1, §2

K. pneuminiae IFO 3317 = system: K. pneuminiae IFO 3317
Experimental: as §1, §2

K. pneuminiae No. 42 = system: K. pneuminiae No. 42
Experimental: as §1, §2

M. luteus ATCC 9341 = details: Micrococcus luteus, ATCC9341
Experimental: as §1, §2

M. morganii IFO 3848 = details: Morganella morganii, IFO3848
Experimental: as §1, §2

P. aeruginosa AKR17 = details: Pseudomonas aeruginosa
Experimental: as §1, §2

P. aeruginosa NCTC 10490 = details: Pseudomonas aeruginosa, NCTC10490, P. aeruginosa NCTC 10490; read-out: MIC
Experimental: as §1, §2

P. cepacia = details: Burkholderia cepacia, read-out: MIC
Experimental: as §1, §2

P. mirabilis IFO 3849 = details: Proteus mirabilis, IFO3849, P. mirabilis IFO 3849; read-out: MIC
Experimental: as §1, §2

P. vulugaris OX-19 = system: P. vulugaris OX-19
Experimental: as §1, §2

S. aureus 167 = details: Staphylococcus aureus; S. aureus 167 (MRSA)
Experimental: as §1, §2

S. aureus 195 = details: Staphylococcus aureus; S. aureus 195 (MRSA)
Experimental: as §1, §2

S. aureus 209p JC-1 = details: Staphylococcus aureus, 209P, read-out: MIC
Experimental: as §1, §2

S. aureus Smith = details: Staphylococcus aureus, read-out: MIC
Experimental: as §1, §2

S. epidemidis IAM 1296 = system: S. epidemidis IAM 1296
Experimental: as §1, §2

S. marcescens IAM 1184 = details: Serratia marcescens, IAM1184, S. marcescens IAM 1184; read-out: MIC
Experimental: as §1, §2

S. marcescens No. 16-2 = details: Serratia marcescens, NO.162
Experimental: as §1, §2

Structure (SMILES) | MIC (A. calcoaceticos T59) [µg/mL] | MIC (A. faecalis ATCC 3750) [µg/mL] | MIC (B. subtilis ATCC 6633) [µg/mL] | MIC (C. freundii ATCC 8090) [µg/mL] | MIC (E. cloacae ATCC 13407) [µg/mL] | MIC (E. cloacae Nek39) [µg/mL] | MIC (E. coli CSH2(RE45)) [µg/mL] | MIC (E. coli CSH2(RK1)) [µg/mL] | MIC (E. coli NHIJ JC-2) [µg/mL] | MIC (K. pneuminiae IFO 3317) [µg/mL] | MIC (K. pneuminiae No. 42) [µg/mL] | MIC (M. luteus ATCC 9341) [µg/mL] | MIC (M. morganii IFO 3848) [µg/mL] | MIC (P. aeruginosa AKR17) [µg/mL] | MIC (P. aeruginosa NCTC 10490) [µg/mL] | MIC (P. cepacia) [µg/mL] | MIC (P. mirabilis IFO 3849) [µg/mL] | MIC (P. vulugaris OX-19) [µg/mL] | MIC (S. aureus 167) [µg/mL] | MIC (S. aureus 195) [µg/mL] | further results
NC(=NO)c1cc[n+](CC2=C(C(=O)[O-])N3C(=O)[C@@H](NC(=O)/C(=N\O)c4csc(N)n4)[C@H]3SC2)cc1 [Ex. 20, 7β-[2-(2-aminothiazol-4-yl)-2-syn-hydroxyiminoacetamido]-3-[4-(1-amino-1-hydroxyiminomethyl)pyridinio]methyl-3-cephem-4-carboxylate] | 6.25 (≈ 12.1 µM) | 0.78 (≈ 1.5 µM) | 0.2 (≈ 0.386 µM) | 0.2 (≈ 0.386 µM) | 12.5 (≈ 24.1 µM) | 50 (≈ 96.4 µM) | 0.2 (≈ 0.386 µM) | 0.39 (≈ 0.752 µM) | 0.2 (≈ 0.386 µM) | 0.1 (≈ 0.193 µM) | 0.39 (≈ 0.752 µM) | 0.025 (≈ 0.0482 µM) | 0.1 (≈ 0.193 µM) | > 100 | 0.78 (≈ 1.5 µM) | > 100 | 0.2 (≈ 0.386 µM) | 0.2 (≈ 0.386 µM) | 6.25 (≈ 12.1 µM) | 3.31 (≈ 6.38 µM) | MIC (S. aureus 209p JC-1): 0.2 µg/mL (≈ 0.386 µM); MIC (S. aureus Smith): 0.39 µg/mL (≈ 0.752 µM); MIC (S. epidemidis IAM 1296): 0.05 µg/mL (≈ 0.0964 µM); MIC (S. marcescens IAM 1184): 0.1 µg/mL (≈ 0.193 µM); MIC (S. marcescens No. 16-2): 100 µg/mL (≈ 193 µM)
Nc1nc(-c2cc[n+](CC3=C(C(=O)[O-])N4C(=O)[C@@H](NC(=O)/C(=N\O)c5csc(N)n5)[C@H]4SC3)cc2)no1 [Ex. 13, 7β-[2-(2-aminothiazol-4-yl)-2-syn-hydroxyiminoacetamido]-3-[4-(5-amino-1,2,4-oxadiazol-3-yl)pyridinio]methyl-3-cephem-4-carboxylate] | 12.5 (≈ 23 µM) | 1.56 (≈ 2.87 µM) | 0.2 (≈ 0.368 µM) | 0.2 (≈ 0.368 µM) | 3.13 (≈ 5.76 µM) | > 100 | 0.39 (≈ 0.718 µM) | 0.39 (≈ 0.718 µM) | 0.2 (≈ 0.368 µM) | 0.2 (≈ 0.368 µM) | 0.78 (≈ 1.44 µM) | 0.025 (≈ 0.046 µM) | 0.1 (≈ 0.184 µM) | > 100 | 1.56 (≈ 2.87 µM) | > 100 | 0.39 (≈ 0.718 µM) | 0.2 (≈ 0.368 µM) | 6.25 (≈ 11.5 µM) | 3.13 (≈ 5.76 µM) | MIC (S. aureus 209p JC-1): 0.2 µg/mL (≈ 0.368 µM); MIC (S. aureus Smith): 0.39 µg/mL (≈ 0.718 µM); MIC (S. epidemidis IAM 1296): 0.1 µg/mL (≈ 0.184 µM); MIC (S. marcescens IAM 1184): 0.39 µg/mL (≈ 0.718 µM); MIC (S. marcescens No. 16-2): 100 µg/mL (≈ 184 µM)
NC(=O)Nc1ccc[n+](CC2=C(C(=O)[O-])N3C(=O)[C@@H](NC(=O)/C(=N\O)c4nsc(N)n4)[C@H]3SC2)c1 [Ex. 2, 7β-[2-(5-amino-1,2,4-thiadiazol-3-yl)-2-syn-hydroxyiminoacetamido]-3-(3-ureidopyridinio)methyl-3-cephem-4-carboxylate] | 1.56 (≈ 3 µM) | 3.13 (≈ 6.02 µM) | 0.39 (≈ 0.751 µM) | 0.78 (≈ 1.5 µM) | 6.25 (≈ 12 µM) | 100 (≈ 192 µM) | 0.78 (≈ 1.5 µM) | 1.56 (≈ 3 µM) | 0.78 (≈ 1.5 µM) | 0.39 (≈ 0.751 µM) | 0.78 (≈ 1.5 µM) | 0.05 (≈ 0.0962 µM) | 0.78 (≈ 1.5 µM) | > 100 | 0.78 (≈ 1.5 µM) | > 100 | 1.56 (≈ 3 µM) | 1.56 (≈ 3 µM) | 6.25 (≈ 12 µM) | 3.13 (≈ 6.02 µM) | MIC (S. aureus 209p JC-1): 0.39 µg/mL (≈ 0.751 µM); MIC (S. aureus Smith): 0.78 µg/mL (≈ 1.5 µM); MIC (S. epidemidis IAM 1296): 0.2 µg/mL (≈ 0.385 µM); MIC (S. marcescens IAM 1184): 0.39 µg/mL (≈ 0.751 µM); MIC (S. marcescens No. 16-2): 100 µg/mL (≈ 192 µM)
Nc1nc(-c2cc[n+](CC3=C(C(=O)[O-])N4C(=O)[C@@H](NC(=O)/C(=N\O)c5csc(N)n5)[C@H]4SC3)cc2)n[nH]1 [Ex. 16, 7β-[2-(2-aminothiazol-4-yl)-2-syn-hydroxyiminoacetamido]-3-[4-(3-aminotriazol-5-yl)pyridinio]methyl-3-cephem-4-carboxylate] | 12.5 (≈ 23 µM) | 1.56 (≈ 2.88 µM) | 0.2 (≈ 0.369 µM) | 0.2 (≈ 0.369 µM) | 12.5 (≈ 23 µM) | > 100 | 0.2 (≈ 0.369 µM) | 0.78 (≈ 1.44 µM) | 0.1 (≈ 0.184 µM) | 0.1 (≈ 0.184 µM) | 0.39 (≈ 0.719 µM) | 0.025 (≈ 0.0461 µM) | 0.05 (≈ 0.0922 µM) | > 100 | 1.56 (≈ 2.88 µM) | > 100 | 0.2 (≈ 0.369 µM) | 0.1 (≈ 0.184 µM) | 3.13 (≈ 5.77 µM) | 1.56 (≈ 2.88 µM) | MIC (S. aureus 209p JC-1): 0.2 µg/mL (≈ 0.369 µM); MIC (S. aureus Smith): 0.39 µg/mL (≈ 0.719 µM); MIC (S. epidemidis IAM 1296): 0.1 µg/mL (≈ 0.184 µM); MIC (S. marcescens IAM 1184): 0.2 µg/mL (≈ 0.369 µM); MIC (S. marcescens No. 16-2): > 100 µg/mL
